{"source": "patent US10960020B2", "about": "“Modulation of PCSK9 and LDLR through DRP1 inhibition” (THE BRIGHAM AND WOMEN'S HOSPITAL, INC., priority 2016, dated 2021)", "key": {"[1]": {"tested_on": "HNF1A, SREBP-2, and SREBP-1a", "assay": "Real time PCR, PCSK9 regulating transcription factors", "type": "cell-based", "conditions": "HepG2 and primary human hepatocytes, Mdivi-1 50 μM, 24 hours", "excerpt": "(§1) Human cells and mouse liver was homogenized with TriZolTM (Life Technologies, Grand Island, N.Y.) to isolate RNA. QuantiTectTM Reverse Transcription Kit (Qiagen, Hilden, Germany) was used for reverse transcription on total RNA. cDNA was generated using the Quanta gScriptTM cDNA Synthesis Kit (Bioscience Inc., Gaithersburg, Md.). mRNA levels were quantified on a 7900HT real-time PCR system (Thermo Fisher Scientific) using TaqManTM real-time PCR with the following probes: Hs02758991_g1 (human GAPDH); Mm99999915_g1 (mouse Gapdh); Hs00236329 m1 (human BCL2L1); Hs00247147_m1 (human DRP1); Hs00545399_m1 (human PCSK9); Mm01263610_m1 (mouse Pcsk9); Hs00168352_m1 (human HMGCR); […]); Hs00181192_m1 (human LDLR); Mm00440169_m1 (mouse Ldlr); Hs01088691_m1 (human SREBP1); Mm00550338_m1 (mouse Srebp1); Hs00231674_m1 (human SREBP1a); custom primer (human SREBP1c); Hs01081784_m1 (human SREBP2); Mm01306292_m1 (mouse Srebp2); Hs01005622_m1 (human FASN); […]); Hs00167041_m1 (human HNF1A); Mm00493434_m1 (mouse Hnf1a); Hs00171168 (human APOE); Hs01059118_m1 (human ABCA1); Hs01103582_s1 (human JUN). Mouse SREBP-1c was analyzed by SYBERTM green PCR with the following primers: [NT] All expression levels were normalized to GAPDH using the ΔΔCT method."}, "BECLIN1": {"tested_on": "BECLIN1", "assay": "BECLIN1 mRNA and protein", "type": "cell-based, human", "conditions": "24 hours", "excerpt": "as §1, with “[…] Protein concentrations were determined by the Pierce BCA AssayTM (Thermo Fisher Scientific). […] Protein” for “All expression”, “β-ACTIN, α-TUBULIN, or LAMIN A/C with” for “GAPDH using”, “use of NIH ImageJ software for quantification.” for “ΔΔCT method.”"}, "[2]": {"tested_on": "ischemia/reperfusion injury-induced myocardial infarction", "conditions": "mice; cited from earlier work"}}, "data": [{"smiles": "COc1cc(-n2c(S)nc3ccccc3c2=O)c(Cl)cc1Cl", "note": "[Mdivi-1, 3-(2,4-Dichloro-5-methoxyphenyl)-2,3-dihydro-2-thioxo-4(1H)-quinazolinone]", "values": [{"measurement": "Expression of HNF1A, SREBP-2, and SREBP-1a", "setting": "[1]", "result": "not changed"}, {"measurement": "BECLIN1 protein abundance", "setting": "BECLIN1; HepG2, Mdivi-1 50 μM", "result": "did not alter"}, {"measurement": "BECLIN1 mRNA", "setting": "BECLIN1; human hepatocytes, Mdivi-1 50 μM", "result": "did not alter"}, {"measurement": "ischemia/reperfusion injury-induced myocardial infarction", "setting": "[2]", "result": "reduces"}]}]}
